The values below come from patent publication US20250170136A1, “1,2,4-TRIAZIN-3(2H)-ONE COMPOUNDS FOR THE TREATMENT OF HYPERPROLIFERATIVE DISEASES” (BAYER AKTIENGESELLSCHAFT, priority 2019, published 2025).

In the test the target is human full length PDE3B (Homo sapiens (Human), UniProt Q13370). Put plainly: PDE3B enzyme inhibition (3H-cAMP Scintillation Proximity Assay). The class given is biochemical. The following applies: Sf9 cell extract, 60 min room temperature. The method, then:
The commercially available 3H-cAMP Scintillation Proximity Assay (SPA, Perkin Elmer) system was used for enzyme inhibition studies. For the determination of the in vitro effect of example compounds on the PDE3B reactions 2 μl of the respective example compound solution in DMSO (serial dilutions) were placed in wells of microtiter plates (Isoplate-96/200W; Perkin Elmer). 50 μl of a dilution of PDE3B cell extract from Sf9 cells overexpressing human full length PDE3B (SB Drug Discovery, UK) in buffer A (50 mM Tris/HCl pH 7.5, 8.3 mM MgCl2, 1.7 mM EDTA, 0.2% BSA) was added. The dilution of the PDE3B cell extract was chosen such that the reaction kinetics was linear and less than 70% of the substrate was consumed (typical dilution 1:6000). The reaction was started by addition of 50 μl (0.025 μCi) of 1:2000 in buffer A w/o BSA diluted substrate [8-3H]adenosine 3′, 5′-cyclic phosphate (1 μCi/μl; Perkin Elmer). After incubation at room temperature for 60 min, the reaction was stopped by addition of 25 μl of a suspension containing 18 mg/ml yttrium scintillation proximity beads (Perkin Elmer) in water. The microtiter plates were sealed and measured in a Microbeta scintillation counter (PerkinElmer Wallac). IC50 values were determined from sigmoidal curves by plotting percentage PDE3B activity vs log compound concentration.

human full length PDE3B, sequence (Q13370 whole entry): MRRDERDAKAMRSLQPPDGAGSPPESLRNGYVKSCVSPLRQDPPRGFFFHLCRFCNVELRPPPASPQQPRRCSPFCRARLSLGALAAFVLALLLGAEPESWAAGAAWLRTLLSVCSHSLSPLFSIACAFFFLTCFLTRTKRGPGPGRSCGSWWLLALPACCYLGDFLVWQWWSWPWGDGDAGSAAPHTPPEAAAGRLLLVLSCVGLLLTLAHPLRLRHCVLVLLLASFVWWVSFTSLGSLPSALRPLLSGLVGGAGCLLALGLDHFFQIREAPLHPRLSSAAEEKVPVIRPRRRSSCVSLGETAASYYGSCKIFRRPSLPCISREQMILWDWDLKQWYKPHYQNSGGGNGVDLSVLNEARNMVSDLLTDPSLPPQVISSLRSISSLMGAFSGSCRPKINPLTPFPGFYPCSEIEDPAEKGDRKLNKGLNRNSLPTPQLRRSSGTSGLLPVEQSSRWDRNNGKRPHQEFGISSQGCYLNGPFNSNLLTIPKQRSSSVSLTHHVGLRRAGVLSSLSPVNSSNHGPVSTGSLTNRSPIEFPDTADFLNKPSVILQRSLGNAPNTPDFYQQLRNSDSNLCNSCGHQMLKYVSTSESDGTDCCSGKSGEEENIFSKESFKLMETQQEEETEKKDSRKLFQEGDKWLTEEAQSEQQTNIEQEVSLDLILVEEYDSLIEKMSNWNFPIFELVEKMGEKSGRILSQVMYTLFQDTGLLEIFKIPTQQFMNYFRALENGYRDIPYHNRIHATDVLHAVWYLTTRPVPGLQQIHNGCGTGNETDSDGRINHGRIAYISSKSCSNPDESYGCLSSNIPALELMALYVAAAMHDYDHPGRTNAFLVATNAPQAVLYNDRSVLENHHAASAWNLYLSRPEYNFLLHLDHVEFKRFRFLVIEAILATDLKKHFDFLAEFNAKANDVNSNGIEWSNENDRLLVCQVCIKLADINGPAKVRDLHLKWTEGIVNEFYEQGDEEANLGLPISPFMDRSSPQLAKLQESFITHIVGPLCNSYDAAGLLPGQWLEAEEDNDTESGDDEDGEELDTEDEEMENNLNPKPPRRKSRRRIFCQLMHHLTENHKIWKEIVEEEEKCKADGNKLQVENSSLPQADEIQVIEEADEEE

By IC50 is commonly meant the midpoint of a concentration-inhibition curve. Higher therefore signals weaker potency. For the molecule `C[C@@H]1NC(=O)NN=C1c1ccc(-n2ccc(C(F)(F)F)n2)c(C(F)(F)F)c1` [Example 1, (5S)-5-methyl-6-{3-(trifluoromethyl)-4-[3-(trifluoromethyl)-1H-pyrazol-1-yl]phenyl}-4,5-dihydro-1,2,4-triazin-3(2H)-one], 81 nM corresponded to half-maximal inhibition (IC50).
